Measured values as given in US20140228303A1, “NOVEL SGLT INHIBITORS” (Panacea Biotec Ltd, priority 2011, published 2014).

Tests used:
mouse SGLT-2 = biological target: T1, mouse SGLT-2 (Mus musculus, UniProt Q923I7); experiment: Methyl-α-D-[U-14C]Glucopyranoside uptake assay for SGLT-2 in CHO-K1 cells expressing mSGLT-2; type: cell-based; conditions: N.E. = Not Effective
T1 construct: Full-length mouse SGLT-2 cDNA was amplified from C57BL/6J mouse kidneys and introduced in the pcDNA3.1(+) expression vector; expressed in transfected cells
T1 sequence (Q923I7 1-670): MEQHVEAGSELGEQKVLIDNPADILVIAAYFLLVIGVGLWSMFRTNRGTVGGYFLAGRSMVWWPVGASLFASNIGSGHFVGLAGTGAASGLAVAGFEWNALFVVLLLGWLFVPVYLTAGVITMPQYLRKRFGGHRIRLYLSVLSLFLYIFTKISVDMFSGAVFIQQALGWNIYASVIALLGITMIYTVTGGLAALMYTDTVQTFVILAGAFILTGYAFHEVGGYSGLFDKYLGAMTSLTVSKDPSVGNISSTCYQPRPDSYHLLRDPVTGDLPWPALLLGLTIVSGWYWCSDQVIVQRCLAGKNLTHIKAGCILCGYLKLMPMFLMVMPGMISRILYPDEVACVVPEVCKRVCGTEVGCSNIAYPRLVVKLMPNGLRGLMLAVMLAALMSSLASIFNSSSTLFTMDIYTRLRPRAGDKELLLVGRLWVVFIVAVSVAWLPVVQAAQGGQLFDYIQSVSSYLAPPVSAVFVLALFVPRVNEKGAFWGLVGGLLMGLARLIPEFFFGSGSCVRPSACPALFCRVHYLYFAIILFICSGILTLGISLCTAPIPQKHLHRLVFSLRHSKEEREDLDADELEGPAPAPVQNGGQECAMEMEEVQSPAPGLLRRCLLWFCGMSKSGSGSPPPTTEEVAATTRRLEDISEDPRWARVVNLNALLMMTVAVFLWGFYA
Protocol: Preparation of Mouse SGLT-2 Expressing Cells
Full-length mouse SGLT-2 cDNA was amplified from C57BL/6J mouse kidneys and introduced in the pcDNA3.1(+) expression vector (Invitrogen, Inc.) and propagated in Escherichia coli strain DH5α using Luria-Bertani (LB) medium containing ampicillin. […] Stably transfected cells were selected using G418 antibiotic selection pressure.
Methyl-α-D-[U-^14C]Glucopyranoside Uptake Assay for SGLT-2
(§1) Cells expressing mSGLT-2 were seeded on 96-well tissue culture plates (Greiner, Inc.) in RPMI containing 10% FBS and 400 μg/mL G418 (0.8×10^5 cells per well in 200 μL medium) and incubated at 37° C. under 5% carbon dioxide for 24 h prior to the assay. Cells were washed twice with 200 μL of either sodium buffer (140 mM NaCl, 4.7 mM KCl, 2.2 mM CaCl2, 1.2 mM MgCl2, 10 mM Tris/Hepes, pH 7.4) or sodium-free buffer (137 mM N-methyl-glucamine, 4.7 mM KCl, 2.2 mM CaCl2, 1.2 mM MgCl2, 10 mM Tris/Hepes, pH 7.4). Reaction mixture containing test compounds at different concentrations diluted in assay buffer, 0.1 mM unlabeled Methyl-α-D-glucopyranoside and 1 μCi/well methyl-α-D[U-^14C]glucopyranoside (American Radiochemicals) was added per well of a 96-well plate and incubated at 37° C. for 1 h. Cells were washed thrice with 200 μL of wash buffer (140 mM NaCl, 4.7 mM KCl, 2.2 mM CaCl2, 1.2 mM MgCl2, 10 mM Tris/Hepes, pH 7.4 containing 500 μM phlorizin) and lysed using 50 μL of 0.25N NaOH. Methyl-α-D[U-^14C]glucopyranoside uptake was quantitated using a Top count scintillation counter (PerkinElmer, Inc.). All the test compounds were assayed in triplicates.

human SGLT-1 = biological target: T2, human SGLT-1 (Homo sapiens, UniProt P13866); experiment: Methyl-α-D-[U-14C]Glucopyranoside uptake assay for SGLT-1 in CHO-K1 cells expressing hSGLT-1; type: cell-based; conditions: N.E. = Not Effective
T2 construct: Full-length human SGLT-1 cDNA in the pCMV-XL-Neo expression vector was obtained from Origene Corporation
T2 sequence (P13866 1-664): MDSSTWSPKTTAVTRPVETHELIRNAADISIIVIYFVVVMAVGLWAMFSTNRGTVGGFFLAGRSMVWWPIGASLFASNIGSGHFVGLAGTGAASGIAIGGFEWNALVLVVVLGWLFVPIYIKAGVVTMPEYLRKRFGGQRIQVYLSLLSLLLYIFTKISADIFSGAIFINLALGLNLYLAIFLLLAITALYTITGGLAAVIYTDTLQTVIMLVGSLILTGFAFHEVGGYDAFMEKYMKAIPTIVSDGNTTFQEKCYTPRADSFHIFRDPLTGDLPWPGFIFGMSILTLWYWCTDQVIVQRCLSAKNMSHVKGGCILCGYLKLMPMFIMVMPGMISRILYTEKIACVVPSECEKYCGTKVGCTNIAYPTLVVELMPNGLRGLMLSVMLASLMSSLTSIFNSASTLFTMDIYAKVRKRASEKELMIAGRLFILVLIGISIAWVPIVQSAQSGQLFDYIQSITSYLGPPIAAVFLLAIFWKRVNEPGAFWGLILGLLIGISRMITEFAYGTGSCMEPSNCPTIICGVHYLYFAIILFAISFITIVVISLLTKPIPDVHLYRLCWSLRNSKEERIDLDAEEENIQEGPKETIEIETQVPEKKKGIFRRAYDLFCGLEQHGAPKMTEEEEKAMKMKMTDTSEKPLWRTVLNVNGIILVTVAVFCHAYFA
Protocol: Preparation of Human SGLT-1 Expressing Cells
Full-length human SGLT-1 cDNA in the pCMV-XL-Neo expression vector was obtained from Origene Corporation and propagated in Escherichia coli strain DH5α using Luria-Bertani (LB) medium containing ampicillin. […] Stably transfected cells were selected using G418 antibiotic selection pressure.
Methyl-α-D-[U-^14C]Glucopyranoside Uptake Assay for SGLT-1
as §1, with “hSGLT-1” for “mSGLT-2”, “800 μg/ml” for “400 μg/mL”, “compounds” for “compounds at different concentrations”, “1” for “0.1”, “methyl-α-D-[U-^14C]glucopyranoside” for “methyl-α-D[U-^14C]glucopyranoside”, “Methyl-α-D-[U-^14C]glucopyranoside” for “Methyl-α-D[U-^14C]glucopyranoside”

C57BL/6J mice = experiment: Estimation of urinary glucose in C57BL/6J mice; type: in vivo, mouse; conditions: urine collected over 24 h
Protocol: Estimation of Urinary Glucose in C57BL/6J Mice
C57BL/6J mice were fasted 4 h before drug treatment. Fasted mice were weighed and randomized into different groups based on their body weight (n=6). At time T0 test compounds and standard compounds suspended in 0.25% CMC or PEG 400 formulation, were administered to respective groups and kept in metabolic cages (6 mice/cage) after dosing. Animals were fed after drug administration and urine was collected over a period of 24 h. Urinary volume was measured and urinary glucose was estimated using Merckotest Glucose Reagent (Merck Specialities Pvt. Ltd., India).

Rats = experiment: Estimation of urinary glucose in rat; type: in vivo; conditions: urine collected over 24 hrs
Protocol: Estimation of Urinary Glucose in Rat
Rats were fasted overnight (14 hrs) before drug treatment. Fasted rats were weighed and randomized into different groups based on their body weight (n=4). At time To test compounds and standard compound suspended in 0.25% C.M.C. or PEG 400 formulation were administered to respective groups and kept the animals in metabolic cages (1 rat/cage) after dosing. Animals were fed after drug administration and urine was collected over a period of 24 hrs. Urine volume was measured and urinary glucose was estimated using Merckotest Glucose Reagent (Merck Specialities Pvt. Ltd., India).

Row | Compound | % inhibition of Methyl-α-D-[U-14C] Glucopyranoside uptake (CHO-K1 cells) mediated by SGLT-2 (mouse SGLT-2; 0.1 nM compound) | % inhibition of Methyl-α-D-[U-14C] Glucopyranoside uptake (CHO-K1 cells) mediated by SGLT-2 (mouse SGLT-2; 1 nM compound) [%] | % inhibition of Methyl-α-D-[U-14C] Glucopyranoside uptake (CHO-K1 cells) mediated by SGLT-2 (mouse SGLT-2; 10 nM compound) [%] | % inhibition of Methyl-α-D-[U-14C] Glucopyranoside uptake (CHO-K1 cells) mediated by SGLT-2 (mouse SGLT-2; 100 nM compound) [%] | % inhibition of Methyl-α-D-[U-14C] Glucopyranoside uptake (CHO-K1 cells) mediated by SGLT-1 (human SGLT-1; 100 nM compound) | % inhibition of Methyl-α-D-[U-14C] Glucopyranoside uptake (CHO-K1 cells) mediated by SGLT-1 (human SGLT-1; 1 μM compound) | % inhibition of Methyl-α-D-[U-14C] Glucopyranoside uptake (CHO-K1 cells) mediated by SGLT-1 (human SGLT-1; 10 μM compound) [%] | UGE in mice (in mg/g of feed consumed) at 3 mpk (C57BL/6J mice) | UGE in rat (in mg/g of feed consumed) at 3 mpk (Rats)
1 | 1-(4-(2-chloro-5-((1S,2S,3S,4R,5S)-2,3,4-trihydroxy-1-(hydroxymethyl)-6,8-dioxabicyclo[3.2.1]octan-5-yl)benzyl)phenyl)ethanone O-ethyl oxime [Compound 8] | N.E. | 25.35 | 72.44 | 90.93 | 20.63% | 55.66% | 88.57 | 60.6 mg/g of feed consumed | –
2 | 1-(4-(2-chloro-5-((1S,2S,3S,4R,5S)-2,3,4-trihydroxy-1-(hydroxymethyl)-6,8-dioxabicyclo[3.2.1]octan-5-yl)benzyl)phenyl)ethanone O-methyl oxime [Compound 4] | – | – | – | – | – | – | – | 76.2 mg/g of feed consumed | –
3 | 1-(4-(2-chloro-5-((1S,2S,3S,4R,5S)-2,3,4-trihydroxy-1-(hydroxymethyl)-6,8-dioxabicyclo[3.2.1]octan-5-yl)benzyl)phenyl)propan-1-one O-methyl oxime [Compound 3] | 26.42% | 26.10 | 59.52 | 93.34 | N.E. | N.E. | 63.64 | 81.9 mg/g of feed consumed | 67.4 mg/g of feed consumed
4 | CCON=C(CC)c1ccc(Cc2cc([C@@H]3O[C@H](CO)[C@@H](O)[C@H](O)[C@H]3O)ccc2Cl)cc1 [Compound 17] | – | – | – | – | – | – | – | 64.5 mg/g of feed consumed | –

The next lines start with results.

Row | % inhibition of Methyl-α-D-[U-14C] Glucopyranoside uptake (CHO-K1 cells) mediated by SGLT-2 (mouse SGLT-2; 0.1 nM compound) | % inhibition of Methyl-α-D-[U-14C] Glucopyranoside uptake (CHO-K1 cells) mediated by SGLT-2 (mouse SGLT-2; 1 nM compound) [%] | % inhibition of Methyl-α-D-[U-14C] Glucopyranoside uptake (CHO-K1 cells) mediated by SGLT-2 (mouse SGLT-2; 10 nM compound) [%] | % inhibition of Methyl-α-D-[U-14C] Glucopyranoside uptake (CHO-K1 cells) mediated by SGLT-2 (mouse SGLT-2; 100 nM compound) [%] | % inhibition of Methyl-α-D-[U-14C] Glucopyranoside uptake (CHO-K1 cells) mediated by SGLT-1 (human SGLT-1; 100 nM compound) | % inhibition of Methyl-α-D-[U-14C] Glucopyranoside uptake (CHO-K1 cells) mediated by SGLT-1 (human SGLT-1; 1 μM compound) | % inhibition of Methyl-α-D-[U-14C] Glucopyranoside uptake (CHO-K1 cells) mediated by SGLT-1 (human SGLT-1; 10 μM compound) [%] | Compound | UGE in mice (in mg/g of feed consumed) at 3 mpk (C57BL/6J mice) | UGE in rat (in mg/g of feed consumed) at 3 mpk (Rats)
5 | 44.36% | 48.64 | 42.26 | 74.40 | N.E. | N.E. | 56.97 | 1-(4-(2-chloro-5-((2S,3R,4R,5S,6R)-3,4,5-trihydroxy-6-(hydroxymethyl)tetrahydro-2H-pyran-2-yl)benzyl)phenyl)-propan-1-one O-methyl oxime [Compound 7] | 78.4 mg/g of feed consumed | –
6 | 44.05% | 45.09 | 62.06 | 89.78 | N.E. | 22.68% | 60.02 | 1-(4-(2-chloro-5-((2S,3R,4R,5S,6R)-3,4,5-trihydroxy-6-(hydroxymethyl)tetrahydro-2H-pyran-2-yl)benzyl)phenyl)ethanone O-ethyl oxime [Compound 6] | 78.1 mg/g of feed consumed | –
7 | 23.91% | 45.81 | 50.06 | 91.98 | N.E. | N.E. | 49.74 | 1-(4-(2-chloro-5-((2S,3R,4R,5S,6S)-3,4,5-trihydroxy-6-methoxy tetrahydro-2H-pyran-2-yl)benzyl)phenyl)ethanone O-ethyl oxime [Compound 5] | 81.7 mg/g of feed consumed | –
